Data as given in patent US20080170990A1, “Methods for Myocardial Imaging in Patients Having a History of Pulmonary Disease” (CV THERAPEUTICS, INC., priority 2006, published 2008).
Where two headings read alike, the source gives them in different places.

Assays:
[1] = system: subjects undergoing stress/rest MPI; test: Stress/rest SPECT myocardial perfusion imaging, adenosine vs Regadenoson (Example 6); format: in vivo, human; details: 4D MSPECT; p=n.s.
Description: To determine the ability of Regadenoson to produce coronary hyperemia and accurately detect CAD, 35 subjects (26 men, 9 women; 67±10 years) underwent both A and Regadenoson stress/rest MPI, with 10.0±9.1 days between studies. […] Regadenoson [400 mcg (n=18), 500 mcg (n=17)] was administered as an IV bolus immediately followed by a saline flush, and then a Tc-99m radiopharmaceutical [sestamibi (n=34), tetrofosmin (n=1)]. SPECT images were uniformly processed, intermixed with control studies (normal and fixed-only defects), and interpreted by three observers in a blinded fashion using a 17-segment model. Quantitative analysis was also performed using 4D MSPECT. In addition to three separate readings, a consensus interpretation was performed and then a direct, same-screen comparison of A and REGADENASON images undertaken to determine relative differences, using 5 regions per study.

awake rats = test: Sympathoexcitation: heart rate, blood pressure and plasma catecholamines after i.v. bolus (Example 5); format: in vivo, rat
Description: CVT (0.31 μg/kg-50 μg/kg) was given as a rapid i.v. bolus to awake rats and heart rate (HR) and blood pressure (BP) were monitored. Regadenoson caused an increase in BP and systolic pressure (SP) at lower doses while at higher doses there was a decrease in BP and SP. […] The increase in HR was evident at the lowest dose of CVT at which there was no appreciable decrease in BP. ZM241385 (30 μg/kg, N=5), an A2A adenosine receptor antagonist, attenuated the decrease in BP (Regadenoson: 14±3%, ZM: 1±1%) and the increase in HR (CVT: 27±3%, ZM: 18±3%) caused by Regadenoson. Pretreatment with metoprolol (MET, 1 mg/kg, n=5), a beta-blocker, attenuated the increase in HR (CVT: 27±3%, MET: 15±2%), but had no effect on hypotension caused by Regadenoson. In the presence of hexamethonium (HEX, 10 mg/kg, n=5), a ganglionic blocker, the tachycardia was prevented (CVT: 27±3%, HEX: −1±2%), but BP was further reduced (CVT: −11±2%, HEX: −49±5%).

anesthetized dog = test: Blood flow velocity in various vascular beds, intravascular Doppler (Example 4); format: in vivo; details: 1.0 μg/kg intravenous bolus
Description: The effects of Regadenoson were quantified as the average peak blood flow velocity (APV) using intravascular Doppler transducer tipped catheter. Heart rate (HR) and systemic arterial blood pressure (BP) were also monitored.

[2] = Phase 1 pharmacokinetics after single IV bolus, three-compartment model (Example 3); format: in vivo, human; details: for Vd: human, plasma, intravenous, read-out: Vc (central volume of distribution)
Description: Regadenoson was administered as an IV bolus (20 seconds) in ascending doses of […], 10, 20 and 30 μg/kg.
Plasma samples were drawn during supine phase (Days 1 and 2) at 0, 1, 2, 3, 4, 5, 7, 10, 15, 20, 30, 45 minutes after dosing and at 1, 1.5, 2, 4, 6, 8, 12 and 24 hours after dosing. Urine was collected for 24 hours for Regadenoson excretion.
A three-compartment open model was fit to the data using observed Tmax (1-4 minutes) as the duration of a zero-order infusion. Reliable parameter estimates were obtained for dose of 1-30 μg/kg. Parameters are summarized in the following (Table 2): […]

In the case of `CNC(=O)c1cnn(-c2nc(N)c3ncn([C@@H]4O[C@H](CO)[C@@H](O)[C@H]4O)c3n2)c1` [Regadenoson, (1-{9-[(4S,2R,3R,5R)-3,4-dihydroxy-5-(hydroxymethyl)oxolan-2-yl]-6-aminopurin-2-yl}pyrazol-4-yl)-N-methylcarboxamide], the “summed score following stress, quantitative analysis” value [1] is reported as 133.6±1.6, the “effect on HR” value (awake rats; 0.31 μg/kg-50 μg/kg rapid i.v. bolus) is reported as “dose-dependent increase in HR” and the “BP change caused by Regadenoson” value (awake rats; CVT alone (hexamethonium experiment)) is reported as −11±2%. For the same molecule, the “increase in HR caused by Regadenoson” value (awake rats; CVT alone (printed three times: ZM, MET, HEX comparisons)) was 27±3%, the “decrease in BP caused by Regadenoson” value (awake rats; Regadenoson alone (ZM241385 experiment)) was 14±3% and the “time for effect on blood flow velocity to dissipate” value (anesthetized dog) was “less than ten minutes”. For the same molecule, the “K21 (rate constant for transfer from first peripheral to central compartment)” value ([2]; Total (all doses), N=22, mean) was 0.258 min⁻¹, the “K31 (rate constant for transfer from second peripheral to central compartment)” value ([2]; Total (all doses), N=22, mean) was 0.0143 min⁻¹ and the “Vss (volume of distribution at steady state)” value ([2]; Total (all doses), N=22, mean) was 75.5 L. For the same molecule, the “K21 (rate constant for transfer from first peripheral to central compartment)” value ([2]; dose 1 μg/kg, N=3, mean) was 0.246 min⁻¹, the “K31 (rate constant for transfer from second peripheral to central compartment)” value ([2]; dose 1 μg/kg, N=3, mean) was 0.01808 min⁻¹ and the “K21 (rate constant for transfer from first peripheral to central compartment)” value ([2]; dose 3 μg/kg, N=4, mean) was 0.203 min⁻¹. For the same molecule, the “K31 (rate constant for transfer from second peripheral to central compartment)” value ([2]; dose 3 μg/kg, N=4, mean) was 0.0152 min⁻¹, the “α Half-life” value ([2]; dose 3 μg/kg, N=4, mean) was 3.11 min and the “K21 (rate constant for transfer from first peripheral to central compartment)” value ([2]; dose 10 μg/kg, N=4, mean) was 0.187 min⁻¹. The “K31 (rate constant for transfer from second peripheral to central compartment)” value ([2]; dose 10 μg/kg, N=4, mean) was 0.0108 min⁻¹, the “K21 (rate constant for transfer from first peripheral to central compartment)” value ([2]; dose 20 μg/kg, N=8, mean) was 0.387 min⁻¹ and the “K31 (rate constant for transfer from second peripheral to central compartment)” value ([2]; dose 20 μg/kg, N=8, mean) was 0.0141 min⁻¹. For the same molecule, the “CL (clearance)” value ([2]; dose 20 μg/kg, N=8, mean (SD)) was 743 (123) mL/min, the “K21 (rate constant for transfer from first peripheral to central compartment)” value ([2]; dose 30 μg/kg, N=3, mean) was 0.0948 min⁻¹ and the “K31 (rate constant for transfer from second peripheral to central compartment)” value ([2]; dose 30 μg/kg, N=3, mean) was 0.0148 min⁻¹. The “Vss (volume of distribution at steady state)” value ([2]; dose 30 μg/kg, N=3, mean) was 89.6 L, the “λ Half-life” value ([2]; dose 30 μg/kg, N=3, mean) was 99.4 min and the Vd ([2]; 1 ug/kg, N=3, mean (SD)) was 9.84 L. The Vd ([2]; 3 ug/kg, N=4, mean (SD)) was 13.7 L, the Vd ([2]; 10 ug/kg, N=4, mean (SD)) was 17.9 L and the Vd ([2]; 20 ug/kg, N=8, mean) was 12.5 L. It also gave a Vd ([2]; 30 ug/kg, N=3, mean) of 15.7 L and a Vd ([2]; Total (all doses), N=22, mean) of 13.8 L.
